Entries after “also recorded” stand apart in the source; their conditions may differ. Read-outs that look alike come from different tables or passages of the source.

The test system of data set [1] is Asp366Asn-IBD variant of LEDGF. As to conditions: fluorescence anisotropy; fluorescein-labeled HTHi 50 nM; pH 6.0; 5°C. (In general: Fluorescence polarisation rises when a labelled molecule tumbles more slowly, as on binding a larger partner.)
Description: The wt IBD is the fragment 347–471 of LEDGF (GST removed) [33], [51], [52]. The mutant IBD is the Asp366Asn version of the former. Like the whole protein, these contain no Trp. […] The proteins were used in the “reaction buffer” containing 20 mM HEPES (pH 6.8), 10 mM MgCl2 and 10 mM DTT.
Intrinsic fluorescence quantum yield and fluorescence anisotropy studies were carried out with a Jobin-Yvon Fluoromax II instrument (HORIBA Jobin-Yvon, France) equipped with an ozone-free 150 W xenon lamp. The samples (800 µl) were placed at 5°C in thermally jacketed 1 cm×0.5 cm quartz cells. At least ten measurements for each titration point were recorded with an integration time of 5 sec.
The fluorescence anisotropy of the fluorescein-conjugated version of HTHi (50 nM) titrated by wt and mutated IBD in the “assay buffer” was used to evaluate the Kd of the LEDGF-HTHi complex.
The target of data set [2] is T1, LEDGF-IBD (wt IBD) (Homo sapiens, UniProt O75475).
T1 construct: The wt IBD is the fragment 347–471 of LEDGF (GST removed); GST (cleaved yes)
T1 sequence (O75475 347-471): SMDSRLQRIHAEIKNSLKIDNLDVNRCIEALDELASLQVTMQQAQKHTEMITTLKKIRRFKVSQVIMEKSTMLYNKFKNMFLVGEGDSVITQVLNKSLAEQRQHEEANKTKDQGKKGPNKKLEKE
Description: Fluorescence anisotropy titration of fluorescein-grafted HTHi by wt LEDGF-IBD. In kind it is binding. As to conditions: fluorescein-grafted HTHi 50 nM titrated by wt LEDGF-IBD; pH 6.0; 5°C. The text has this:
(§1) Like the whole protein, these contain no Trp.

In data set [3] the test system is wt IN. The note with it: intrinsic fluorescence of IN; similar conditions; ref [30]; cited from earlier work. The method, then:
In a previous study, based on the intrinsic fluorescence properties of IN conferred by its six Trp residues, we have shown the ability of peptide INH5 (Table 1a) to interact with IN with a concentration midpoint (C0.5) of 168 nM [30].

For data set [4], the system named is IN. The note with it: ref [30]; cited from earlier work. The method, then:
In a previous study, based on the intrinsic fluorescence properties of IN conferred by its six Trp residues, we have shown the ability of peptide INH5 (Table 1a) to interact with IN with a concentration midpoint (C0.5) of 168 nM [30]. […] There are examples in the literature showing that the so-called stabilizing helix of HTH motifs is involved in the protein dimerization. This is the case of topoisomerase II, in which the binding site to DNA is fashioned from the interaction of two HTH motifs. The implication of the α5 helix in the enzyme structure and activity has been highlighted in our previous report showing that peptide INH ...

Data set [5] concerns the target CRE (cAMP response element). As to conditions: negative control sequence CRE; ref [43]; read-out: Kd (non-specific binding); cited from earlier work. The text has this: The behavior of peptide HTHi is similar to that of peptide K156.
In data set [6] the test system is viral DNA. Description: Specific binding of peptide to viral DNA (general statement). Further details: species or system HIV-1. As to conditions: Discussion.
For data set [7], the system named is LTR34f5′. The note with it: LTR34f5′ vs LTR34fm; ref [43]; cited from earlier work. The text has this:
(§2) In a previous work we pointed out the importance of the conformational entropy in the binding of the α4 helix to the viral DNA. In order to reduce this effect, we had designed an analog of the α4 peptide that had its secondary structure stabilized by helicogenic mutations (Gly149Ala, Ile161Leu, Ile162Leu and Gly163Ala). The resulting peptide, K156, was a good mimic of the α4 helix in the protein context and was better organized for binding than peptide α4.

Data set [8] has as its target LTR34fm. The note with it: ref [43], cited from earlier work.
Excerpt: as §2

Data set [9] is described as follows: Circular dichroism of free peptide (secondary structure, oligomerisation). In kind it is physicochemical. The text has this: They were made according to the Fmoc procedure, as already reported for peptide α4, for its “stabilized” analogue i.e., peptide K156, and for the peptide INH5, derived from the α5 helix, [43]. Peptide α4 reproduces the α4 helix sequence of IN; peptide K156 is a variant of the α4 peptide resulting from the replacement of weakly helicogenic residues by more helicogenic ones in several biologically irrelevant positions; peptide INH5 contains both the α5 helix and the turn connecting the α5 helix to the α4 helix. The peptides HTHi and wt HTHi reproduce the sequences of the HTHi motifs in the IN-Phe185Lys variant and in wt IN respectively. A version of the HTHi peptide with a carboxyfluorescein at the N-terminus has also been prepared. Tyr or Trp aromatic residues, when absent in the native sequences, were purposely added in order to enable peptide quantification by UV absorption spectra. Peptide concentrations were determined using a molar absorption coefficient at 280 nm equal to 1 280 M^−1 cm^−1 for the tyrosine-containing peptides α4, INH5 and HTHi and 5600 M^−1 cm^−1 for the tryptophane-containing peptides K156 and […].
CD spectra were recorded on a Jobin-Yvon CD6 dichrograph (HORIBA Jobin-Yvon, France). Peptide concentrations varied from 5 to 25 µM in the “assay buffer”, containing 40 mM sodium phosphate, 0.5 mM EDTA, pH 6.0. The samples, incubated 10 min at the chosen temperature to allow the solutions to reach their equilibrium state, were placed in thermally jacketed cells with a 1 mm path length. The spectra, recorded in 1 nm steps, were averaged over ten scans and corrected for the base line, then presented as differential molar absorptivities per residue, Δε (M^−1 cm^−1), for peptides, and as difference spectra (complex minus DNA), for peptide-DNA complexes. For the HTHi-LTR interaction, aliquots of peptide were added to LTR34 (10 µM) and the control spectrum of unliganded LTR was subtracted from that of the complex. Recall that in a simple random coil – α helix equilibrium, the α-helix content of peptides could be approximated by the relation: Pα = −[Δε222×10] (Pα: percentage of α helix; Δε222: differential molar absorptivity per residue at 222 nm).

Data set [10] relates to wt IN. Description: Quenching of the intrinsic fluorescence of wt IN by peptide. The format is binding, HIV-1. As to conditions: wt IN 100 nM monomer; Trp fluorescence quenching, excitation 295 nm; 20 mM HEPES pH 6.8, 10 mM MgCl2, 10 mM DTT; 5°C. Here is the method:
as §1
The intrinsic fluorescence of wt IN was measured at 100 nM monomer concentration, in the “reaction buffer” (see above). The Trp residues were excited at 295 nm and emission was recorded between 305 and 450 nm, with 2 nm and 5 nm excitation and emission slit widths, respectively. A maximal emission was obtained at 337 nm. Quenching of the fluorescence of IN following the addition of HTHi or of peptide α4 (devoid of Trp) was expressed as 1-F/F0, where F0 is the fluorescence of the enzyme in the absence of peptide.

For data set [11], the system named is LTR34. Description: Circular dichroism of peptide-DNA complex (difference spectrum). The format is binding, HIV-1. As to conditions: HTHi 6 µM + LTR34 10 µM, 40 mM sodium phosphate, 0.5 mM EDTA, pH 6.0. The text has this: (§3) The oligonucleotides (Table 1b) were purchased from Cybergene ESGS (France) and Eurogentec (Belgium). The choice of monomolecular hairpin-forming oligonucleotides, rather than bimolecular duplex-forming ones, was motivated by the need for stability under the low concentrations inherent to the fluorescence anisotropy experiments. The fluorescein reporter group is grafted either to the central T nucleotide (LTR34fm) or to the 5′ extremity (LTR34f5′ and CRE). The CRE (cAMP responsive element) sequence was used as negative control. The version of LTR34 without fluorescein was used in CD studies.
CD spectra were recorded on a Jobin-Yvon CD6 dichrograph (HORIBA Jobin-Yvon, France). Peptide concentrations varied from 5 to 25 µM in the “assay buffer”, containing 40 mM sodium phosphate, 0.5 mM EDTA, pH 6.0. The samples, incubated 10 min at the chosen temperature to allow the solutions to reach their equilibrium state, were placed in thermally jacketed cells with a 1 mm path length. The spectra, recorded in 1 nm steps, were averaged over ten scans and corrected for the base line, then presented as differential molar absorptivities per residue, Δε (M^−1 cm^−1), for peptides, and as difference spectra (complex minus DNA), for peptide-DNA complexes. […]
Background: CD spectra are sensitive to the conformation of chiral molecules.

For data set [12], the target named is LTR34fm. Nature of the data set: Fluorescence anisotropy titration of LTR34fm by peptide. The format is binding, HIV-1. As to conditions: LTR34fm 20 nM, curve fitting, ±10% uncertainty, 40 mM sodium phosphate, 0.5 mM EDTA, pH 6.0, 5°C.
Excerpt: as §3
(§4) Fluorescence anisotropy titration, [75]. Fluorescein-labeled oligonucleotides were used at 20 nM in the “assay buffer” (see Table 1b and above). With fluorescein as fluorophore, excitation and emission were at 488 nm and 516 nm, with 4 nm and 5 nm slits, respectively. Peptides were added to DNA as successive aliquots. For each anisotropy measurement, the parallel [drawing 1] and the perpendicular [drawing 2] intensities of the background solution (i.e., buffer and protein contributions) were subtracted from those of the sample.

Data set [13] deals with CRE (cAMP response element). Description: Fluorescence anisotropy titration of CRE (negative control sequence) by peptide. As to conditions: CRE 20 nM, curve fitting, ±10% uncertainty, 40 mM sodium phosphate, 0.5 mM EDTA, pH 6.0, 5°C, read-out: Kd (non-specific binding).
Excerpt: as §3, §4

In data set [14] the target is LTR34f5′. Nature of the data set: Fluorescence anisotropy titration of LTR34f5′ by peptide. The format is binding, HIV-1.
Excerpt: as §3, §4

With `CC[C@H](C)[C@H](NC(=O)[C@H](Cc1ccccc1)NC(=O)[C@@H](NC(=O)[C@H](C)NC(=O)[C@H](CCSC)NC(=O)[C@H](CCC(N)=O)NC(=O)[C@@H](NC(=O)[C@H](C)NC(=O)[C@@H](NC(=O)[C@H](CCCCN)NC(=O)[C@H](CC(C)C)NC(=O)[C@H](Cc1c[nH]cn1)NC(=O)[C@H](CCC(=O)O)NC(=O)[C@H](C)NC(=O)[C@H](CCC(N)=O)NC(=O)[C@H](CC(=O)O)NC(=O)[C@H](CCCNC(=N)N)NC(=O)[C@@H](NC(=O)[C@H](CCC(N)=O)NC(=O)CNC(=O)[C@@H](NC(=O)[C@@H](NC(=O)[C@H](CCCCN)NC(=O)[C@H](CCCCN)NC(=O)[C@H](CC(C)C)NC(=O)[C@H](CCC(=O)O)NC(=O)[C@H](CCCCN)NC(=O)[C@H](CC(N)=O)NC(=O)[C@H](CCSC)NC(=O)[C@H](CO)NC(=O)[C@H](CCC(=O)O)NC(=O)[C@@H](NC(=O)[C@@H](NC(=O)CNC(=O)[C@H](Cc1ccc(O)cc1)NC(=O)c1ccc2c(c1)C(=O)OC21c2ccc(O)cc2Oc2cc(O)ccc21)C(C)C)[C@@H](C)CC)[C@@H](C)CC)[C@@H](C)CC)C(C)C)[C@@H](C)O)C(C)C)C(C)C)C(=O)N[C@@H](Cc1c[nH]cn1)C(=O)N[C@@H](CC(N)=O)C(=O)N[C@@H](CCCCN)C(=O)N[C@@H](CCCCN)C(=O)N[C@@H](C)C(=O)O` [fluorescein-grafted HTHi peptide], the “binding to Asp366Asn-IBD vs wt IBD” value in data set [1] was “only the wt IBD binds HTHi”. In data set [2], this compound yielded a Hill number of 11±3.
Consider “DQ 168 AEHLKTAVQMAVFIHNY 185KA [INH5, peptide containing both the α5 helix and the turn connecting the α5 helix to the α4 helix]”, for which the “concentration midpoint (C0.5)” value in data set [3] was 168 nM. In addition, in [4], the “effect on IN” value is “caused the dissociation of the tetramers and dimers of IN; also recorded: inhibits IN by dissociating the IN dimers and tetramers”.
As for SQA 149 KLEEMNK156ELKKLLAQVRAQ168 W, the Kd was 16 µM in data set [5]; 0.0021 µM in data set [8] (attachment site on the six outermost bases of viral DNA, read-out: Kd1 (high affinity site)); 54 µM in data set [8] (non-specific binding, read-out: Kd2 (low affinity site)). In data set [6] (K156 vs HTHi), the “affinity for viral DNA compared with HTHi” value is given as “manifests a greater affinity for viral DNA than peptide HTHi”. In addition, in data set [7], the “effect of fluorescein at the 5′ extremity on binding modes” value is recorded as “suppressed the high affinity binding mode of K156 but preserved the low affinity mode”.
“SQG149VIESMNK156ELKKIIGQVRDQ 168 AEHLKTAVQMAVWIHNF185K [wt HTHi]”: in data set [9] (experiments not shown, method not stated), the “structure compared with that of the mutant bi-helix” value was “the structure of the wt bi-helix was similar to that of the mutant”.
SQG149VVESMNK156ELKKIIGQVRY [α4]: the “conformation of isolated peptide” value in [9] (stated in Discussion) is on record as “mostly displays random conformation”. Moreover, the “midpoint of titration curve (C0.5)” value in data set [10] was 53 ± 5 nM. In [6] (isolated peptide, no value), the “DNA binding (in words)” value is recorded as “very poor DNA binder; also recorded: completely unable to specifically bind the viral DNA”.
As to “YG149VIESMNK156ELKKIIGQVRDQ 168 AEHLKTAVQMAVFIHNK 185KA [HTHi]”, the “helix content compared with component peptides α4 and INH5” value in [9] (CD, spectra of α4 from ref [43] and of INH5 from ref [30]) is “helix content of HTHi is greater than that of peptides α4 [43] and INH5 [30]”. Besides, the “propensity to form oligomers in solution” value in [9] (high peptide concentration, CD, pH 6.0) is recorded as “propensity of HTHi to form oligomers in solution at high concentration”. Moreover, in data set [9] (peptide 6 µM, 40 mM sodium phosphate, 0.5 mM EDTA, pH 6.0, 1 mm path length), the helical content is 10–15%. Also, in [9] (peptide 25 µM, 40 mM sodium phosphate, 0.5 mM EDTA, pH 6.0), the “helical content (in words)” value is given as “weak amount of helix”. Moreover, the “midpoint of titration curve (C0.5)” value in [10] came out at 104 ± 8 nM. Further, in data set [11], the “change of helical content on binding LTR34” value was “practically doubles its helical content when binding to LTR34”. Moreover, the Kd in data set [12] (read-out: Kd1 (high affinity site)) worked out at 50 nM; in [12] (read-out: Kd2 (low affinity, non-specific site)) it was 1900 nM; in [13], 6.6 µM; in [14] (LTR34f5′ 20 nM, monophasic, fluorescence anisotropy, curve fitting, ±10% uncertainty, 40 mM sodium phosphate, 0.5 mM EDTA, pH 6.0, 5°C) it was 2900 nM. Moreover, the “effect of fluorescein at the 5′ extremity on high affinity binding” value in [14] (LTR34f5′ vs LTR34fm) is “The high affinity is abolished”.
